Laboratory results as given in patent US6492417B1, “11-deoxy-16-fluoro-PGF2α analogs as FP receptor antagonists” (Alcon Manufacturing, Ltd., priority 1997, dated 2002).

Columns and labels:
FP receptor [1] = biological target: T1, FP receptor (Rattus norvegicus, UniProt P43118); assay: Schild analysis: antagonism of fluprostenol-induced [3H]IPs production in A7r5 cells (fixed antagonist, varied agonist); assay type: cell-based; conditions: for Kb / Kb (potency as antagonist of the FP receptor): Schild analysis; for Kb: read-out: Kb (potency as antagonist of the FP receptor)
T1 construct: Two cell lines containing the FP receptor; host or cells: A7r5 rat thoracic aorta smooth muscle cells
Method: (§1) Confluent monolayer cultures of cells (in a standard 24-well tissue culture plate) expressing the FP receptor are exposed to [^3H]-myo-inositol (1.5 μCi in a volume of 0.5 ml DMEM culture medium supplemented with 2 mM L-glutamine and 10 μg/ml gentamicin sulfate) in the absence of serum, which causes net incorporation of the radioisotope into the phosphotidylinositol membrane lipids. After 24-32 hrs, the medium with the radioisotope is removed and the cells are rinsed once with DMEM/F-12 medium containing 10 mM LiCl (assay medium). Then 0.5 ml of assay medium is added to each well of cells, followed by addition of varying concentrations of an FP receptor agonist (or other test compound). Cells are exposed to the test agent for 30-120 min in a humidified incubator (95% air/5% CO2), maintained at 37° C. Then the assay medium is removed and 1 ml of 0.1 M formic acid is added to the cell monolayer to inactivate the phospholipase C and to the radiolabelled products into the assay medium. The presence of LiCl during the agonist stimulation period inhibits phosphatases and permits the accumulation of radiolabelled inositol phosphates (IPs) which is measured by ion exchange chromatography.
The agonist-dependent production of IPs, which reflects the degree of receptor activation, is quantitatively measured for each well of cells in the 24-well plate by separating the negatively charged radiolabelled IPs from other minor radiolabelled species and free [^3H]-myo-inositol by anion exchange chromatography. This is accomplished by adding 0.9 ml of the cell lysate obtained as described above to a column packed with 1 ml of AG 1-X8 anion exchange resin in the formate form. The elution and separation of the radiolabelled IPs from the column consists of sequential additions to the column of: 1) 10 ml of water; 2) 8 ml of 50 mM ammonium formate; and 3) 4 ml of 1.2 M ammonium formate solution containing 0.1 M formic acid. The first two washes are discarded, and the third is collected in a scintillation vial, to which is added 15 ml of a water-accepting scintillation fluid. These samples, i.e., the radiolabelled IPs formed by the cells in response to stimulation by an FP prostaglandin receptor agonist or other test agent, is then measured by scintillation spectrometry on a beta-counter.
The dependence of the level of the [^3H]IPs production on agonist concentration is analyzed by standard pharmacological methods to determine the potency (EC50 value) and efficacy (maximum response; Emax) of the FP receptor agonist relative to a standard FP receptor agonist such as fluprostenol. […] The agonist stimulation is then continued for the standard time (30-120 min), after which the procedure for quenching the reaction, separating the [^3H]IPs, and anion exchange chromatography is identical to the procedure described above. A compound is considered to be an antagonist in this protocol if it inhibits the agonist-stimulated [^3H]IPs production relative to the production measured in the control experiment (performed in parallel), in which the solvent is substituted for the antagonist.
Two different antagonist protocols are employed: 1) the antagonist concentration is varied while holding the agonist concentration fixed at a concentration approximately 10 times the agonist EC50 value and 2) the antagonist concentration is fixed in a given experiment, with the agonist concentration varied, and several such experiments, each with a different, fixed antagonist concentration, are performed. […] Overall, the Ki and Kb values are synonymous and represent the antagonist potency of the antagonist at equilibrium.

FP receptor [2] = biological target: T1, FP receptor; assay: Agonist stimulation of [3H]IPs production in A7r5 cells; assay type: cell-based
Method: as §1, with “Then the assay medium is removed and 1 ml of 0.1 M formic acid is added to the cell monolayer to inactivate the phospholipase C and to the radiolabelled products into the assay medium.” left out
(§2) The agonist-dependent production of IPs, which reflects the degree of receptor activation, is quantitatively measured for each well of cells in the 24-well plate by separating the negatively charged radiolabelled IPs from other minor radiolabelled species and free [^3H]-myo-inositol by anion exchange chromatography. […]

[3] = biological target: FP prostaglandin receptor (Homo sapiens, UniProt P43088); assay: Selectivity for FP prostaglandin receptor compared to other classes of prostaglandin receptors
FP receptor [4] = biological target: T1, FP receptor; assay: Concentration-dependent inhibition of fluprostenol-stimulated [3H]IPs production in A7r5 cells (varied antagonist, fixed agonist); assay type: cell-based; conditions: fluprostenol fixed at approximately 10 times its EC50, n=3, read-out: Ki (antagonist potency by method of FIG. 2)
Method: as §1, with “Then the assay medium is removed and 1 ml of 0.1 M formic acid is added to the cell monolayer to inactivate the phospholipase C and to the radiolabelled products into the assay medium.” left out
as §2

FP receptor [5] = assay: Schild analysis: antagonism of agonist-stimulated [3H]IPs production, data from 3T3 and A7r5 cells; assay type: cell-based, mouse and rat; conditions: n=9 experiments using 3T3 and A7r5 cells; read-out: Kb (antagonist potency by Schild analysis)
Method: as §1, with “Then the assay medium is removed and 1 ml of 0.1 M formic acid is added to the cell monolayer to inactivate the phospholipase C and to the radiolabelled products into the assay medium.” left out
as §2

T1 sequence (P43118 whole entry): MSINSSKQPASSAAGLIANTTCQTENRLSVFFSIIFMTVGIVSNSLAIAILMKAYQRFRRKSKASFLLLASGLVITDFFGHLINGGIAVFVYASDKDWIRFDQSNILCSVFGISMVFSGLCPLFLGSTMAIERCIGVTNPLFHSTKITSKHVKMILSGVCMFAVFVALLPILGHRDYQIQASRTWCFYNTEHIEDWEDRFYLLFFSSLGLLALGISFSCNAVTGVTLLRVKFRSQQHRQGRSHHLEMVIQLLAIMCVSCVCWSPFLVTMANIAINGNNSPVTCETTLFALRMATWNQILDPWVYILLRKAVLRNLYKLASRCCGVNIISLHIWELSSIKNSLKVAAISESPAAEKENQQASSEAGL
Sequence of FP prostaglandin receptor (P43088 whole entry): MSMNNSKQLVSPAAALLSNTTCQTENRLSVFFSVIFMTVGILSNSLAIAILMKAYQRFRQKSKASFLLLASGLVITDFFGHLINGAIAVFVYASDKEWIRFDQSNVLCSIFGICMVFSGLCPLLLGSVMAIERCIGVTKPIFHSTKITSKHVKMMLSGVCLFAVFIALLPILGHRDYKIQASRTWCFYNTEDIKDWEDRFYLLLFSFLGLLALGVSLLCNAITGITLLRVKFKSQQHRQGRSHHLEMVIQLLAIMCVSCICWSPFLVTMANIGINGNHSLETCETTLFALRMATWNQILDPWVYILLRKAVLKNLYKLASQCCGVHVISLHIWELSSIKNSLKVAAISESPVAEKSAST

Q: `COc1ccc(Cl)cc1C(=O)NCCc1ccc(S(=O)(=O)NC(=O)NC2CCCCC2)cc1` [Glibenclamide] was tested. Which Kb (FP receptor [1]; A7r5 cells) did it give?
A: 160000 nM

Q: How did the “Agonist classification (maximum effect relative to fluprostenol)” value (FP receptor [2]) turn out when `O=C(O)CCC/C=C\C[C@@H]1[C@@H](/C=C/[C@@H](O)COc2cccc(C(F)(F)F)c2)[C@H](O)C[C@@H]1O` (racemic) [fluprostenol] was run?
A: full agonist

Q: Which “Kb (potency as antagonist of the FP receptor)” value (FP receptor [1]; A7r5 cells) does the source give for `CCCCC[C@H](O)/C=C/[C@@H]1[C@@H](C/C=C\CCCC(=O)N(C)C)[C@@H](O)C[C@H]1O` [PGF2α dimethyl amide] here?
A: Inactive

Q: With `CCCCC(F)[C@H](O)/C=C/[C@H]1CC[C@H](O)[C@@H]1C/C=C\CCCC(=O)O` (some centres unmarked) [Compound II] as the compound, how does the “Selectivity for the FP prostaglandin receptor compared to other classes of prostaglandin receptors” value [3] read?
A: relatively good selectivity

Q: And the Ki (FP receptor [4])?
A: 324 ± 49 nM

Q: What about the Kb (FP receptor [1]; A7r5 cells) of the same compound?
A: 132 nM

Q: And the “Type of antagonism (shift of fluprostenol dose-response curves)” value (FP receptor [1]; A7r5 cells, maximal effects of fluprostenol unaltered, potency reduced)?
A: competitive antagonist

Q: And the “Fold higher potency as FP receptor antagonist than phloretin” value (FP receptor [1]; from Table 1 Kb values)?
A: greater than 39 fold

Q: And the “Agonist classification (maximum effect relative to fluprostenol)” value (FP receptor [2])?
A: partial agonist

Q: What about the Kb (FP receptor [5]) of the same compound?
A: 132 ± 22 nM

Q: How did the Kb (FP receptor [1]; A7r5 cells) turn out when `O=C(CCc1ccc(O)cc1)c1c(O)cc(O)cc1O` [Phloretin] was run?
A: 5200 nM

Q: How did the “Kb (potency as antagonist of the FP receptor)” value (FP receptor [1]; A7r5 cells) turn out when `CCCCNC(=O)NS(=O)(=O)c1ccc(C)cc1` [Tolbutamide] was run?
A: Inactive

Q: What about the “Kb (potency as antagonist of the FP receptor)” value (FP receptor [1]; A7r5 cells, listed as tolbutamide) of the same compound?
A: inactive

Q: For `CCCCC[C@H](O)/C=C/[C@@H]1[C@@H](C/C=C\CCCCN(C)C)[C@@H](O)C[C@H]1O` [PGF2α dimethyl amine], which “Kb (potency as antagonist of the FP receptor)” value (FP receptor [1]; A7r5 cells) is on record?
A: Inactive
